Assay results taken from US20180273531A1, “PYRIMIDINE COMPOUND AND MEDICAL USE THEREOF” (Japan Tobacco Inc., priority 2004, published 2018).

What follows are compounds tested on colorectal cancer cell line HT-29 cells (assay: Growth inhibitory effect against cancer cell lines (3H-thymidine uptake), HT-29). Details: Homo sapiens, HT-29, inhibition of 3H-thymidine uptake; test substance 18 hrs, then 3H-thymidine 6 hrs; triplicate.
Assay type: cell-based
Method in brief: (§1)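 Cells seeded at 1.0×10^4/well, grown 24 hrs, then exposed to compound in DMSO for 18 hrs before 6 hrs pulse with ^3H-thymidine (0.25 μCi/well). Harvested cell-incorporated radioactivity counted; IC50 is the concentration halving uptake versus DMSO control, triplicate.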

Q: How did the IC50 turn out when `CCc1ccc(Nc2c3c(=O)n(C)c(=O)n(-c4cccc(NS(C)(=O)=O)c4)c3c(C)c(=O)n2C)c(F)c1` [Example 4-51] was run?
A: < 10 nM

Q: How did the IC50 turn out when `CCCc1ccc(Nc2c3c(=O)n(C4CC4)c(=O)n(-c4cccc(NC(C)=O)c4)c3c(C)c(=O)n2C)c(F)c1` [Example 4-53] was run?
A: 10 to 100 nM

Q: How did the IC50 turn out when `Cc1c(=O)n(C)c(Nc2ccc(I)cc2F)c2c(=O)n(C3CC3)c(=O)n(-c3cccc(S(C)(=O)=O)c3)c12` [Example 4-55] was run?
A: < 10 nM

Q: For `CC(=O)Nc1cccc(-n2c(=O)n(C3CC3)c(=O)c3c(Nc4ccc(C)cc4F)n(C)c(=O)c(C)c32)c1` [Example 4-56], which IC50 is on record?
A: 10 to 100 nM

Q: `CCS(=O)(=O)c1cccc(-n2c(=O)n(C3CC3)c(=O)c3c(Nc4ccc(I)cc4F)n(C)c(=O)c(C)c32)c1` [Example 4-58] was tested. Which IC50 did it give?
A: < 10 nM

Q: For `Cc1c(=O)n(C)c(Nc2ccc(I)cc2F)c2c(=O)n(C3CC3)c(=O)n(-c3cccc(NS(=O)(=O)N4CCCCC4)c3)c12` [Example 4-59], which IC50 is on record?
A: < 10 nM

Q: How did the IC50 turn out when `CCC(=O)Nc1cccc(-n2c(=O)n(C3CC3)c(=O)c3c(Nc4ccc(I)cc4F)n(C)c(=O)c(C)c32)c1` [Example 4-60] was run?
A: < 10 nM

Q: Which IC50 does the source give for `CC(=O)Nc1cccc(-n2c(=O)n(C3CC3)c(=O)c3c(Nc4ccc(N(C)C)cc4F)n(C)c(=O)c(C)c32)c1` [Example 4-61] here?
A: 10 to 100 nM

Q: `Cc1c(=O)n(C)c(Nc2ccc(I)cc2F)c2c(=O)n(C3CC3)c(=O)n(-c3cc(Cl)cc(NS(C)(=O)=O)c3)c12` [Example 4-64] was tested. Which IC50 did it give?
A: 10 to 100 nM

These compounds were tested on p27 protein (assay: p27 protein induction test (Western blotting)). Details: test substance (0.1 1M), 24 hrs, ACHN cells or HT-29 cells, compared to DMSO, n=2.
Assay type: cell-based
Method in brief: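 ACHN or HT-29 cells grown 24 h, then treated with test substance at […] (DMSO) for 24 h. Lysates normalised by protein content and probed by Western blot with anti-p27 antibody. Band density quantified by densitometer against DMSO control, n=2 averaged.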

Q: Which fold induction at 0.1 µM does the source give for `CCc1ccc(Nc2c3c(=O)n(C)c(=O)n(-c4cccc(NS(C)(=O)=O)c4)c3c(C)c(=O)n2C)c(F)c1` [Example 4-51] here?
A: ≥ 1.5

Q: `CCCc1ccc(Nc2c3c(=O)n(C4CC4)c(=O)n(-c4cccc(NC(C)=O)c4)c3c(C)c(=O)n2C)c(F)c1` [Example 4-53] was tested. Which fold induction at 0.1 µM did it give?
A: ≥ 1.5

Q: With `Cc1c(=O)n(C)c(Nc2ccc(I)cc2F)c2c(=O)n(C3CC3)c(=O)n(-c3cccc(S(C)(=O)=O)c3)c12` [Example 4-55] as the compound, how does the fold induction at 0.1 µM read?
A: ≥ 1.5

Q: For `CC(=O)Nc1cccc(-n2c(=O)n(C3CC3)c(=O)c3c(Nc4ccc(C)cc4F)n(C)c(=O)c(C)c32)c1` [Example 4-56], which fold induction at 0.1 µM is on record?
A: ≥ 1.5

Q: With `CCS(=O)(=O)c1cccc(-n2c(=O)n(C3CC3)c(=O)c3c(Nc4ccc(I)cc4F)n(C)c(=O)c(C)c32)c1` [Example 4-58] as the compound, how does the fold induction at 0.1 µM read?
A: ≥ 1.5

Q: How did the fold induction at 0.1 µM turn out when `Cc1c(=O)n(C)c(Nc2ccc(I)cc2F)c2c(=O)n(C3CC3)c(=O)n(-c3cccc(NS(=O)(=O)N4CCCCC4)c3)c12` [Example 4-59] was run?
A: ≥ 1.5

Q: For `CCC(=O)Nc1cccc(-n2c(=O)n(C3CC3)c(=O)c3c(Nc4ccc(I)cc4F)n(C)c(=O)c(C)c32)c1` [Example 4-60], which fold induction at 0.1 µM is on record?
A: ≥ 1.5

Q: `CC(=O)Nc1cccc(-n2c(=O)n(C3CC3)c(=O)c3c(Nc4ccc(N(C)C)cc4F)n(C)c(=O)c(C)c32)c1` [Example 4-61] was tested. Which fold induction at 0.1 µM did it give?
A: ≥ 1.5

Q: For `Cc1c(=O)n(C)c(Nc2ccc(I)cc2F)c2c(=O)n(C3CC3)c(=O)n(-c3cc(Cl)cc(NS(C)(=O)=O)c3)c12` [Example 4-64], which fold induction at 0.1 µM is on record?
A: ≥ 1.5

What follows are compounds tested on Renal cancer cell line ACHN cell (assay: Growth inhibitory effect against cancer cell lines (3H-thymidine uptake), ACHN). Details: Homo sapiens, ACHN.
Assay type: cell-based
Method in brief: as §1

Q: Which IC50 does the source give for `CCc1ccc(Nc2c3c(=O)n(C)c(=O)n(-c4cccc(NS(C)(=O)=O)c4)c3c(C)c(=O)n2C)c(F)c1` [Example 4-51] here?
A: 10 to 100 nM

Q: For `CCCc1ccc(Nc2c3c(=O)n(C4CC4)c(=O)n(-c4cccc(NC(C)=O)c4)c3c(C)c(=O)n2C)c(F)c1` [Example 4-53], which IC50 is on record?
A: 100 to 1000 nM

Q: Which IC50 does the source give for `Cc1c(=O)n(C)c(Nc2ccc(I)cc2F)c2c(=O)n(C3CC3)c(=O)n(-c3cccc(S(C)(=O)=O)c3)c12` [Example 4-55] here?
A: 10 to 100 nM

Q: `CC(=O)Nc1cccc(-n2c(=O)n(C3CC3)c(=O)c3c(Nc4ccc(C)cc4F)n(C)c(=O)c(C)c32)c1` [Example 4-56] was tested. Which IC50 did it give?
A: 100 to 1000 nM

Q: `CCS(=O)(=O)c1cccc(-n2c(=O)n(C3CC3)c(=O)c3c(Nc4ccc(I)cc4F)n(C)c(=O)c(C)c32)c1` [Example 4-58] was tested. Which IC50 did it give?
A: 10 to 100 nM

Q: For `Cc1c(=O)n(C)c(Nc2ccc(I)cc2F)c2c(=O)n(C3CC3)c(=O)n(-c3cccc(NS(=O)(=O)N4CCCCC4)c3)c12` [Example 4-59], which IC50 is on record?
A: 10 to 100 nM

Q: `CCC(=O)Nc1cccc(-n2c(=O)n(C3CC3)c(=O)c3c(Nc4ccc(I)cc4F)n(C)c(=O)c(C)c32)c1` [Example 4-60] was tested. Which IC50 did it give?
A: 10 to 100 nM

Q: With `CC(=O)Nc1cccc(-n2c(=O)n(C3CC3)c(=O)c3c(Nc4ccc(N(C)C)cc4F)n(C)c(=O)c(C)c32)c1` [Example 4-61] as the compound, how does the IC50 read?
A: 10 to 100 nM

Q: For `Cc1c(=O)n(C)c(Nc2ccc(I)cc2F)c2c(=O)n(C3CC3)c(=O)n(-c3cc(Cl)cc(NS(C)(=O)=O)c3)c12` [Example 4-64], which IC50 is on record?
A: 100 to 1000 nM

The compounds below were run on p15 protein (assay: Evaluation of p15 induction activity (Western blotting)). Details: test substance 0.1 μM, 24 hrs, ACHN cells or HT-29 cells, compared to DMSO, n=2.
Assay type: cell-based
Method in brief: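 p15 protein quantified by densitometry of anti-p15 Western blots (10 μg protein per lane, mean of n=2). Samples came from HT-29 or ACHN cells given 0.1 μM compound for 24 h after 24 h plating, with DMSO as control.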

Q: With `CCc1ccc(Nc2c3c(=O)n(C)c(=O)n(-c4cccc(NS(C)(=O)=O)c4)c3c(C)c(=O)n2C)c(F)c1` [Example 4-51] as the compound, how does the fold induction at 0.1 µM read?
A: ≥ 1.5

Q: With `CCCc1ccc(Nc2c3c(=O)n(C4CC4)c(=O)n(-c4cccc(NC(C)=O)c4)c3c(C)c(=O)n2C)c(F)c1` [Example 4-53] as the compound, how does the fold induction at 0.1 µM read?
A: ≥ 1.5

Q: With `Cc1c(=O)n(C)c(Nc2ccc(I)cc2F)c2c(=O)n(C3CC3)c(=O)n(-c3cccc(S(C)(=O)=O)c3)c12` [Example 4-55] as the compound, how does the fold induction at 0.1 µM read?
A: ≥ 1.5

Q: With `CC(=O)Nc1cccc(-n2c(=O)n(C3CC3)c(=O)c3c(Nc4ccc(C)cc4F)n(C)c(=O)c(C)c32)c1` [Example 4-56] as the compound, how does the fold induction at 0.1 µM read?
A: ≥ 1.5

Q: For `CCS(=O)(=O)c1cccc(-n2c(=O)n(C3CC3)c(=O)c3c(Nc4ccc(I)cc4F)n(C)c(=O)c(C)c32)c1` [Example 4-58], which fold induction at 0.1 µM is on record?
A: ≥ 1.5

Q: `Cc1c(=O)n(C)c(Nc2ccc(I)cc2F)c2c(=O)n(C3CC3)c(=O)n(-c3cccc(NS(=O)(=O)N4CCCCC4)c3)c12` [Example 4-59] was tested. Which fold induction at 0.1 µM did it give?
A: ≥ 1.5

Q: How did the fold induction at 0.1 µM turn out when `CCC(=O)Nc1cccc(-n2c(=O)n(C3CC3)c(=O)c3c(Nc4ccc(I)cc4F)n(C)c(=O)c(C)c32)c1` [Example 4-60] was run?
A: ≥ 1.5

Q: `CC(=O)Nc1cccc(-n2c(=O)n(C3CC3)c(=O)c3c(Nc4ccc(N(C)C)cc4F)n(C)c(=O)c(C)c32)c1` [Example 4-61] was tested. Which fold induction at 0.1 µM did it give?
A: ≥ 1.5

Q: How did the fold induction at 0.1 µM turn out when `Cc1c(=O)n(C)c(Nc2ccc(I)cc2F)c2c(=O)n(C3CC3)c(=O)n(-c3cc(Cl)cc(NS(C)(=O)=O)c3)c12` [Example 4-64] was run?
A: ≥ 1.5
